# pIC50, pKi: −log10 of the molar value. Read-outs that look alike come from different tables or passages of the source.
# Legend:
# [1] = biological target: T1, recombinant human JAK1 kinase domain protein (Residues 854-1154) (Homo sapiens, UniProt P23458); test: JAK1 biochemical assay (microfluidic mobility shift, peptide phosphorylation); settings: 25 μM ATP, 1 nM total JAK1; Ki calculated from Ki app (tight-binding, competitive); read-out: Biochem JAK1 Ki
# T1 construct: human JAK1 kinase domain protein (Residues 854-1154); purchased Proteros Biostructures GmbH (Martinsried, Germany); host or cells: insect cells
# T1 sequence (P23458 854-1154): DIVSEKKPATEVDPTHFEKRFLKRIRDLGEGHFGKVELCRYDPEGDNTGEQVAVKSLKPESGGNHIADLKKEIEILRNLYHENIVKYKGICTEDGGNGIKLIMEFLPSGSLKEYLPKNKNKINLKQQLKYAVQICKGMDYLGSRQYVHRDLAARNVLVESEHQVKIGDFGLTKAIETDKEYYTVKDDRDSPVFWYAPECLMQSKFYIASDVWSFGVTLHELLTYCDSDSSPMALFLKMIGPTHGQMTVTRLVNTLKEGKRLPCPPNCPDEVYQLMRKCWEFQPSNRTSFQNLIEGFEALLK
# Experimental: (§1) The in vitro biochemical assays quantify JAK-catalyzed phosphorylation of a synthetic peptide, as detected using a LabChip® EZ Reader II microfluidic mobility shift instrument (PerkinElmer; Waltham, MA). The substrate peptide Y-1B has the sequence 5-FAM-VALVDGYFRLTT-NH2. Y-1B is fluorescently labeled on the N-terminus with 5-FAM (5-carboxyfluorescein) and contains a single tyrosine residue (Y) that can be phosphorylated by JAK activity. The substrate peptide stock is prepared in DMSO at 5 mM. Purified recombinant human JAK1 kinase domain protein (Residues 854-1154) was expressed in insect cells and procured from Proteros Biostructures GmbH (Martinsried, Germany). Recombinant human JAK2 kinase domain protein (Residues 812-1132) was expressed in insect cells and purified at Genentech, Inc. (South San Francisco, CA).
# (§2) The kinase reaction mixtures contained 100 mM 4-(2-hydroxyethyl)-1-piperazineethanesulfonic acid (HEPES) buffer (pH 7.2), 10 mM magnesium chloride, 0.015% Brij® 35, 4 mM dithiothreitol, 1.5 μM Y-1B peptide substrate, 25 μM adenosine triphosphate (ATP), 1 nM total JAK1 or 0.2 nM total JAK2, and up to 1000 nM test compound in a final concentration of 2% (volume to volume [v/v]) DMSO. In each titration experiment, test compound was tested in duplicate at each of the twelve concentrations. Blank reactions contained ATP, peptide, and DMSO, but no JAK or test compound, whereas uninhibited control reactions contained ATP, peptide, JAK, and DMSO, but no test compound.
# (§3) Peptide plus ATP mixture (24 μL) was added to 1 μL of test compound in DMSO (or DMSO alone). The reactions were initiated by adding 25 μL of JAK enzyme to the inhibitor/peptide/ATP mixture before thoroughly mixing the resultant solution. Reactions were incubated at room temperature (22° C.-23° C.) in a final volume of 50 μL per well in 384-well plates. After a 30-minute incubation, the reactions were stopped by adding 25 μL of 150 mM ethylenediaminetetraacetic acid in 100 mM HEPES buffer (pH 7.2) containing 0.015% Brij 35 to each well.
# (§4) In each reaction, the residual Y-1B substrate and the phospho-peptide product generated were separated using the EZ Reader 1 instrument. Electrophoretic separation of molecules of product from molecules of substrate was achieved using downstream and upstream voltages of −500 and −2600 V, respectively, at an operating pressure of −1.3 psi. The 5-FAM group present on both the substrate and product peptides was excited at 488 nm, the fluorescence was detected at 530 nm, and the peak heights were reported.
# (§5) The extent (or percent) of conversion of substrate to product was calculated from the corresponding peak heights in the electropherogram using HTS Well Analyzer software, Version 5.2 (PerkinElmer), and the following equation (Equation 1): % conversion=[P[…](S+P)]×100 Equation 1 where S and P represent the peak heights of the substrate and product, respectively. After any baseline signal from blank wells containing no JAK was subtracted from the signal of all test wells, the % conversion data were converted to fractional activity as shown in Equation 2, where νi and νo are the % conversion in the presence and absence of test compound, respectively. The % conversion observed in the uninhibited control reactions containing JAK and DMSO vehicle, but no test compound, was defined to have fractional activity=1 (with no inhibitor present, νi=νo), whereas blank wells with no JAK were defined as having fractional activity=0. Fractional activity was plotted against test compound concentration and the data were fitted using XLfit software (IDBS; Guildford, United Kingdom) to a tight-binding apparent inhibition constant (Ki^app) quadratic equation (see Equation 2) (Williams J W, Morrison J F. The kinetics of reversible tight-binding inhibition. Methods Enymol 1979; 63:437-67), which was used to calculate fractional activity and Ki^app […]
# [2] = biological target: T2, Recombinant human JAK2 kinase domain protein (Residues 812-1132) (Homo sapiens, UniProt O60674); test: JAK2 biochemical assay (microfluidic mobility shift, peptide phosphorylation); settings: 25 μM ATP, 0.2 nM total JAK2; Ki calculated from Ki app (tight-binding, competitive); read-out: Biochem JAK2 Ki
# T2 construct: human JAK2 kinase domain protein (Residues 812-1132); made in house; host or cells: insect cells
# T2 sequence (O60674 812-1132): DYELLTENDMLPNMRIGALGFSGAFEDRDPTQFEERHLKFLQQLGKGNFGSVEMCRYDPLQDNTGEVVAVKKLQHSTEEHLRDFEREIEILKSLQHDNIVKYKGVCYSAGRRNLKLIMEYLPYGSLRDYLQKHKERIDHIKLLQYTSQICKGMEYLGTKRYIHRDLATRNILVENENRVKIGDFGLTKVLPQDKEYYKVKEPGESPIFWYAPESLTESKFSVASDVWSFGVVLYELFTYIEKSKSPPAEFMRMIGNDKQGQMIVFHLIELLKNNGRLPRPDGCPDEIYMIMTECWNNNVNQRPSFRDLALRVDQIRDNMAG
# Experimental: as §1, §2, §3, §4, §5
# [3] = test system: JAK1 (IL-13-stimulated STAT6 phosphorylation in BEAS-2B cells); test: P-STAT6 BEAS-2B+IL-13 cell assay; assay type: cell-based, human; settings: 1 hour compound, IL-13 15 minutes, IC50 by four-parameter fit, read-out: Cellular JAK1 PSTAT6 BEAS2B + IL13
# Experimental: In order to study the effect of JAK1 inhibitors in a cell line that is relevant to the cell biology of human asthma, an IL-13-stimulated STAT6 phosphorylation assay in the human lung bronchial epithelial BEAS-2B cell line was developed.
# BEAS-2B cells (ATCC® CRL-9609™) were grown in Bronchial Epithelial Growth Medium (BEGM) (Lonza Catalog No. CC-3170; Walkersville, MD; or PromoCell Catalog No. C-21060; Heidelberg, Germany). Test compound stock solutions (0.5 mM in DMSO) were serially diluted 1:2 in DMSO to generate a 10-point concentration curve (at 500× test concentration), which was further diluted by a 50-fold dilution step in BEGM to generate a 10× concentration curve (in 2% DMSO). Cells were plated at 100,000 cells/well in 200 μL of BEGM in 96-well plates and incubated for 48 hours at 37° C. in a humidified incubator. Medium was aspirated from the cells and replaced with 70 μL of fresh BEGM. Diluted test compound (10 μL; or 2% DMSO in assay medium) was added to the cells, and the plates were incubated for 1 hour at 37° C. in a humidified incubator. Twenty μL of 250 ng/mL human recombinant IL-13 (Bio Techne Catalog No. 213-ILB) was then added to the cells and incubated for 15 minutes at 37° C. Medium was aspirated from the cells and 60 μL of ice-cold 1×cell lysis buffer (Cell Signaling Technologies; Catalog No. 9803S) containing 1 mM PMSF was added to the cells. Assay plates were incubated at −80° C. for at least 1 hour. P-STAT6 was measured by coating GAR plates (MSD; Catalog No. L45RA-1) with rabbit anti-human total STAT6 antibody (Cell Signaling Technologies; Catalog No. 9362S), incubating the cell lysates in the coated plates overnight at 4° C., and then detecting with mouse anti-phospho-STAT6 (Tyr641) Clone 16E12 antibody (Millipore; Catalog No. 05-590, custom labeled by MSD with SULFO-tag) using standard MSD plate processing, washing, and detection protocols. Plates were read on the MESO SECTOR S600.
# Data analysis was performed by subtracting negative control values from all wells and determining percent of control using the positive control values; the IC50 was determined with a four-parameter logistic fit model as shown in Equation 4.
SMILES,pKi [1],pKi [2],"pIC50 ([3]; Homo sapiens, BEAS-2B, 1 h)",pIC50 [3]
"CN1CCC[C@H]1CN1CC(n2nnc(Cn3cc(NC(=O)c4cnn5cccnc45)c(-c4cc(OC(F)F)ccc4OC(F)F)n3)n2)C1 (racemic) [Example 46, N-[3-[2,5-bis(difluoromethoxy)phenyl]-1-[[2-[1-[[rac-(2S)-1-methylpyrrolidin-2-yl]methyl]azetidin-3-yl]tetrazol-5-yl]methyl]pyrazol-4-yl]pyrazolo[1,5-a]pyrimidine-3-carboxamide; formic acid]",9.31,9.40,7.74,
"CN1CCC[C@H]1CN1CC(n2nnc(Cn3cc(NC(=O)c4cnn5cccnc45)c(-c4cc(OC(F)F)ccc4OC(F)F)n3)n2)C1 (racemic) [Example 52, N-[3-[2,5-bis(difluoromethoxy)phenyl]-1-[[2-[1-[[rac-(2R)-1-methylpyrrolidin-2-yl]methyl]azetidin-3-yl]tetrazol-5-yl]methyl]pyrazol-4-yl]pyrazolo[1,5-a]pyrimidine-3-carboxamide]",9.42,9.41,,7.72
"CN1CCC[C@H]1Cn1nnnc1Cn1cc(NC(=O)c2cnn3cccnc23)c(-c2cc(OC(F)F)ccc2OC(F)F)n1 (racemic) [Example 54, N-[3-[2,5-bis(difluoromethoxy)phenyl]-1-[[1-[[rac-(2S)-1-methylpyrrolidin-2-yl]methyl]tetrazol-5-yl]methyl]pyrazol-4-yl]pyrazolo[1,5-a]pyrimidine-3-carboxamide]",9.12,9.35,7.29,
"CN1CCC(n2nnc(Cn3cc(NC(=O)c4cnn5cccnc45)c(-c4cc(OC(F)F)ccc4OC(F)F)n3)n2)C1 (single isomer, unassigned) [Example 29, N-[3-[2,5-bis(difluoromethoxy)phenyl]-1-[[2-(1-methylpyrrolidin-3-yl)tetrazol-5-yl]methyl]pyrazol-4-yl]pyrazolo[1,5-a]pyrimidine-3-carboxamide]",9.37,9.60,7.82,
"CN1CCC(n2nnc(Cn3cc(NC(=O)c4cnn5cccnc45)c(-c4cc(OC(F)F)ccc4OC(F)F)n3)n2)C1 (single isomer, unassigned) [Example 30, N-[3-[2,5-bis(difluoromethoxy)phenyl]-1-[[2-(1-methylpyrrolidin-3-yl)tetrazol-5-yl]methyl]pyrazol-4-yl]pyrazolo[1,5-a]pyrimidine-3-carboxamide]",9.40,9.51,,7.77
"CN(C)CCN1CCC(n2nnc(Cn3cc(NC(=O)c4cnn5cccnc45)c(-c4cc(OC(F)F)ccc4OC(F)F)n3)n2)C1 (single isomer, unassigned) [Example 67, N-[3-[2,5-bis(difluoromethoxy)phenyl]-1-[[2-[1-[2-(dimethylamino)ethyl]pyrrolidin-3-yl]tetrazol-5-yl]methyl]pyrazol-4-yl]pyrazolo[1,5-a]pyrimidine-3-carboxamide]",9.28,9.38,7.25,
"CN(C)CCN1CCC(n2nnc(Cn3cc(NC(=O)c4cnn5cccnc45)c(-c4cc(OC(F)F)ccc4OC(F)F)n3)n2)C1 (single isomer, unassigned) [Example 68, N-[3-[2,5-bis(difluoromethoxy)phenyl]-1-[[2-[1-[2-(dimethylamino)ethyl]pyrrolidin-3-yl]tetrazol-5-yl]methyl]pyrazol-4-yl]pyrazolo[1,5-a]pyrimidine-3-carboxamide]",9.34,9.37,,7.39
"CN1CCC(N2CC(n3nnc(Cn4cc(NC(=O)c5cnn6cccnc56)c(-c5cc(OC(F)F)ccc5OC(F)F)n4)n3)C2)C1 (single isomer, unassigned) [Example 73, N-[3-[2,5-bis(difluoromethoxy)phenyl]-1-[[2-[1-(1-methylpyrrolidin-3-yl)azetidin-3-yl]tetrazol-5-yl]methyl]pyrazol-4-yl]pyrazolo[1,5-a]pyrimidine-3-carboxamide]",9.19,9.26,,7.37
"CN(C)C1CCC(N2CC(n3nnc(Cn4cc(NC(=O)c5cnn6cccnc56)c(-c5cc(OC(F)F)ccc5OC(F)F)n4)n3)C2)C1 (single isomer, unassigned) [Example 74, N-[3-[2,5-bis(difluoromethoxy)phenyl]-1-[[2-[1-[3-(dimethylamino)cyclopentyl]azetidin-3-yl]tetrazol-5-yl]methyl]pyrazol-4-yl]pyrazolo[1,5-a]pyrimidine-3-carboxamide]",9.26,9.33,,7.03
"CN(C)C1CCC(N2CC(n3nnc(Cn4cc(NC(=O)c5cnn6cccnc56)c(-c5cc(OC(F)F)ccc5OC(F)F)n4)n3)C2)C1 (single isomer, unassigned) [Example 75, N-[3-[2,5-bis(difluoromethoxy)phenyl]-1-[[2-[1-[3-(dimethylamino)cyclopentyl]azetidin-3-yl]tetrazol-5-yl]methyl]pyrazol-4-yl]pyrazolo[1,5-a]pyrimidine-3-carboxamide]",8.96,8.96,,6.70

# — patent publication US12247032B2, “Substituted pyrazolo[1,5-a]pyrimidines as inhibitors of JAK kinases” (Genentech, Inc., priority 2019, dated 2025)
